Results taken from ChEMBL document CHEMBL5543160, “Psychoplastogenic DYRK1A Inhibitors with Therapeutic Effects Relevant to Alzheimer's Disease” (J Med Chem, 2024).
The source made the active and inactive calls. The rule behind the calls is not given here.

How the values were obtained:
[1] = target: 5-hydroxytryptamine receptor 2A (Homo sapiens) (UniProt P28223); assay: Agonist activity at 5-HT2AR (unknown origin) in human PSYLI2 cells assessed as increase in biosensor activation at 10 uM incubated for 5 mins by PsychLight2 assay; format: functional, cell-based; conditions: PSYLI2 cell
Sequence of 5-hydroxytryptamine receptor 2A (Homo sapiens) (P28223 whole entry): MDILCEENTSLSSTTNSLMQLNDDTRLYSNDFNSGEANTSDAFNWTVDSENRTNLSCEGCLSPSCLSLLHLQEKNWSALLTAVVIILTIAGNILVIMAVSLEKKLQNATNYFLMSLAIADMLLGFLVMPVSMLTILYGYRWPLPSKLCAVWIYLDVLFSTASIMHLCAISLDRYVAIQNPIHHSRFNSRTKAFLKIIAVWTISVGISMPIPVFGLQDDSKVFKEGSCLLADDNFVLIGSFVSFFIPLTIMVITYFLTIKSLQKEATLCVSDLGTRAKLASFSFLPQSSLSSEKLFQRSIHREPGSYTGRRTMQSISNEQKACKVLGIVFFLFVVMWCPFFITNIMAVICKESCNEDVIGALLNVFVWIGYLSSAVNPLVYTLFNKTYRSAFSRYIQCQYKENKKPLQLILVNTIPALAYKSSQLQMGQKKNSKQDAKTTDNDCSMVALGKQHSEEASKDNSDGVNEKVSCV

[2] = target: 5-hydroxytryptamine receptor 2A (Homo sapiens) (UniProt P28223); assay: Antagonist activity at 5-HT2AR (unknown origin) in human PSYLI2 cells assessed as decrease in fluorescence at 10 uM pretreated with 5-HT for 10 mins followed by compound addition and measured after 5 mins by PsychLight2 assay; format: functional, cell-based; conditions: PSYLI2 cell, filed as antagonist
Cortical neurone [3] = assay: Psychoplastogenic effect in Sprague-Dawley rat cortical neuron assessed as increase in dendritic spine density at 10 uM incubated for 24 hrs by spinogenesis based confocal microscopic analysis; format: functional, cell-based
[4] = target: Dual specificity tyrosine-phosphorylation-regulated kinase 1A (Homo sapiens, UniProt Q13627)
Cortical neurone [5] = assay: Induction of neurite outgrowth in Wistar rat Primary cortical neurons assessed as increase in neurite branching incubated for 72 hrs by imaging analysis; format: functional, cell-based; conditions: dose 0.3-10 µM
Cortical neurone [6] = assay: Induction of neurite outgrowth in Wistar rat Primary cortical neurons assessed as increase in neurite length incubated for 72 hrs by imaging analysis; format: functional, cell-based; conditions: dose 0.3-10 µM
[7] = Toxicity in C57BL/6J mouse assessed as effect on locomotion upto 30 mg/kg, ip measured for 10 mins; format: organism-based; conditions: in vivo
[8] = Toxicity in C57BL/6J mouse assessed as induction of head-twitch response upto 30 mg/kg, ip measured for 10 mins; format: organism-based; conditions: in vivo
Mus musculus = assay: Antipsychotic activity in C57BL/6J mouse assessed as reduction in 5-MeO-DMT-induced head-twitch response at 30 mg/kg, ip pretreated with compound for 10 mins followed by 5-MeO-DMT addition and measured after 20 mins; format: functional, organism-based; conditions: time 30.0 min
[9] = target: Microtubule-associated protein tau (Rattus norvegicus) (UniProt P19332); assay: Inhibition of okadaic acid-induced Tau hyperphosphorylation Ser202/Thr205 residues in Sprague-Dawley rat cortical neuron at 50 uM preincubated with compound for 24 hrs followed by okadaic acid addition and measured after 1 hrs by fluorescence based immunohistochemistry analysis; format: cell-based
Sequence of Microtubule-associated protein tau (Rattus norvegicus) (P19332 whole entry): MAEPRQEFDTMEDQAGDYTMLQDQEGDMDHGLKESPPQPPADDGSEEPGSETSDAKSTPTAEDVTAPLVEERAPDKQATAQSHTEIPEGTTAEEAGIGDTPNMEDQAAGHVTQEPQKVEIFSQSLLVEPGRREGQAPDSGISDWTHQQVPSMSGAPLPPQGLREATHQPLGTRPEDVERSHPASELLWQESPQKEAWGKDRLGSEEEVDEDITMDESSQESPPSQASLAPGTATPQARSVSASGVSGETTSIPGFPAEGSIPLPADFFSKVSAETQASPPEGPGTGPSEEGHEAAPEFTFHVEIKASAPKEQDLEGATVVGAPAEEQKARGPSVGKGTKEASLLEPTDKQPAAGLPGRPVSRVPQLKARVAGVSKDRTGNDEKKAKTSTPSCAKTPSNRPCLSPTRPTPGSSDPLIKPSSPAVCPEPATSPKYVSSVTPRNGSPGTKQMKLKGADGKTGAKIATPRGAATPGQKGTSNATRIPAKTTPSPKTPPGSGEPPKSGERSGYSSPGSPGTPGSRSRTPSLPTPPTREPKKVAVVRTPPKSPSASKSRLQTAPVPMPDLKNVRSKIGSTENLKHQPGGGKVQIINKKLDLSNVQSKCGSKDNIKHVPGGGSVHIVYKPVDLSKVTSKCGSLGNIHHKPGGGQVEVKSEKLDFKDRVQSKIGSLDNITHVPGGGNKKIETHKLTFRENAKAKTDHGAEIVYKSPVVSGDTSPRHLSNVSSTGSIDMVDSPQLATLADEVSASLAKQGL

[10] = target: Microtubule-associated protein tau (Rattus norvegicus) (UniProt P19332); assay: Inhibition of okadaic acid-induced Tau hyperphosphorylation Ser202/Thr205 residues in Sprague-Dawley rat cortical neuron at 1 to 50 uM preincubated with compound for 24 hrs followed by okadaic acid addition and measured after 1 hrs by fluorescence based immunohistochemistry analysis; format: cell-based; conditions: dose 1-50 µM
[11] = target: Cyclin-dependent kinase 7 (Homo sapiens) (UniProt P50613); assay: Inhibition of CDK7 (unknown origin) at 10 uM by DiscoverX KINOMEscan assay
Sequence of Cyclin-dependent kinase 7 (Homo sapiens) (P50613 whole entry, canonical isoform): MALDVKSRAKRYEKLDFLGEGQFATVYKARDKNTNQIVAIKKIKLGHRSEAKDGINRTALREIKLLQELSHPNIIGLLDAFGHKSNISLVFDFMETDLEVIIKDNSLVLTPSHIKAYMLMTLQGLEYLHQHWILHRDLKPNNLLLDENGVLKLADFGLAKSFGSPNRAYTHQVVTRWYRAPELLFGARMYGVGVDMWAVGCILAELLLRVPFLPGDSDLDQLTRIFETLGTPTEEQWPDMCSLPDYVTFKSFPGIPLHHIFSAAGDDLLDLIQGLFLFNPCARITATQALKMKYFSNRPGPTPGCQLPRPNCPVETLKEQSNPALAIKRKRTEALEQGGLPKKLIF

[12] = target: Phosphatidylinositol 4,5-bisphosphate 3-kinase catalytic subunit gamma isoform (Homo sapiens) (UniProt P48736); assay: Inhibition of PIK3CG (unknown origin) at 10 uM by DiscoverX KINOMEscan assay
Sequence of Phosphatidylinositol 4,5-bisphosphate 3-kinase catalytic subunit gamma isoform (Homo sapiens) (P48736 whole entry, looked up, canonical isoform): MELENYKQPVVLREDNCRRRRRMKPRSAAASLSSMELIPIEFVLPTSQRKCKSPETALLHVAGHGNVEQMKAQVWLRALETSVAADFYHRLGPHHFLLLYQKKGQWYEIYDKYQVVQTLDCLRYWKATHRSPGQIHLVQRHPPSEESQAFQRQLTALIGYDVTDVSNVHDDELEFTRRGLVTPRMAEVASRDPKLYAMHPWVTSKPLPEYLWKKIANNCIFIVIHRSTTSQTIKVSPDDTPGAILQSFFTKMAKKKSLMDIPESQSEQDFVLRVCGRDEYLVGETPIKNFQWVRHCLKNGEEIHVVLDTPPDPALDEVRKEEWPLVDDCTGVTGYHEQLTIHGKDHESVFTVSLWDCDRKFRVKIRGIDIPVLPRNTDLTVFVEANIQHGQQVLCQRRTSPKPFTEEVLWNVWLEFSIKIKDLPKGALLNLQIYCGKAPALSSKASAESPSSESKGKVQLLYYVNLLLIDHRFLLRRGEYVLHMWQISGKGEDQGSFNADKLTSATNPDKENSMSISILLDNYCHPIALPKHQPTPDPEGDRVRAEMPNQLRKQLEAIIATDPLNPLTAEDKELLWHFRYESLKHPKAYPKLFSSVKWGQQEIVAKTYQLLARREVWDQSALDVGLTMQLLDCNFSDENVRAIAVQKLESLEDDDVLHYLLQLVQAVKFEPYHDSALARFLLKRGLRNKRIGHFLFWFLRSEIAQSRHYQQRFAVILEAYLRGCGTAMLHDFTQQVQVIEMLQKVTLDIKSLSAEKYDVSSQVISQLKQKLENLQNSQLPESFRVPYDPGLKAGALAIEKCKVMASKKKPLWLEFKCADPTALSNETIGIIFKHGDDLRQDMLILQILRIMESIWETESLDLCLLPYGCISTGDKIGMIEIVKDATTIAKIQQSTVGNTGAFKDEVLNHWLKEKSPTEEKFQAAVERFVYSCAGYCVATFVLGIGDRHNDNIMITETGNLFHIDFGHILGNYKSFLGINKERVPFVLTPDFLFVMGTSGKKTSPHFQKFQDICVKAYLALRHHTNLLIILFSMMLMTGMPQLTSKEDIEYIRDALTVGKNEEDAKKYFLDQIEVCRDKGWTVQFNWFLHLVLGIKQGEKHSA

Homo sapiens = organism: Homo sapiens; assay: Inhibition of CAMK (unknown origin) at 10 uM by DiscoverX KINOMEscan assay
[13] = target: Casein kinase I (Homo sapiens) (UniProt Q9HCP0+P78368+P48730+P49674+P48729); assay: Inhibition of CK1 (unknown origin) at 10 uM by DiscoverX KINOMEscan assay; format: protein assay

For `COc1ccc2c(c1)S/C(=C\C(C)=O)N2CCN(C)C`, the Activity [1] was “inactive” and the Activity [2] was “Active”.

For `NCCc1c[nH]c2ccc(O)cc12`, the Activity ([1]; filed as agonist) was “Active”.

In the case of `COc1ccc2c3ccnc(C)c3n(CCN(C)C)c2c1.O=C(O)/C=C/C(=O)O`, the Activity (Cortical neurone [3]) is reported as “Active”, the IC50 [4] is reported as 209 nM and the Activity (Cortical neurone [5]) is reported as “Dose-Dependent Effect”. The Activity (Cortical neurone [6]) was “Dose-Dependent Effect”, the Activity [7] was “Non-Toxic” and the Activity [8] was “Non-Toxic”. For the same molecule, the Activity (Mus musculus) was “Active” and the inhibition [9] was “Active”.

With `Cc1nccc2c3ccccc3n(CCN(C)C)c12` the IC50 [4] was over 10000 nM, the Activity [1] was “inactive” and the Activity [2] was “Active”.

With `CN(C)CCc1c[nH]c2ccccc12` the Activity (Cortical neurone [3]) was “Active” and the inhibition [10] was “inactive”.

For `COc1ccc2c(c1)c1ccnc(C)c1n2CCN(C)C`, the IC50 [4] was over 10000 nM, the Activity [1] was “inactive” and the Activity [2] was “Active”.

With `COc1ccc2c(c1)N(CCN(C)C)/C(=C/C(C)=O)S2` the IC50 [4] was 561 nM, the Activity (Cortical neurone [5]) was “Dose-Dependent Effect” and the inhibition [10] was “inactive”. For the same molecule, the Activity (Cortical neurone [6]) was “Dose-Dependent Effect”.

For `COc1ccc2c(c1)[nH]c1c(C)nccc12`, the Activity (Cortical neurone [3]) was “inactive”, the inhibition [11] was “Active” and the inhibition [10] was “Active”. For the same molecule, the inhibition [12] was “Active”, the inhibition (Homo sapiens) was “Active” and the inhibition [13] was “Active”.

For `CC(=O)/C=C1\Sc2ccccc2N1CCN(C)C`, the Activity [1] was “inactive” and the Activity [2] was “Active”.
